# According to patent publication US8894927B2, “Shower sterilisation system and method of use thereof” (Omnia-Klenz Ltd., priority 2010, dated 2014):
# Where two headings read alike, the source gives them in different places.
# What was measured:
# [1] = system: yeast and mold counts of shower water; assay: Hadfield office shower head, Petrifilm yeast and mold count after biocide treatment; settings: 30 min contact
# [2] = system: Legionella pneumophilia; type: cell-based
# [3] = system: HIV; settings: against HIV; cited from earlier work
# [4] = system: microbiological activity in shower apparatus; assay: Treatment of shower apparatus, microbiological activity / TVC; settings: solution of around 250-500 ppm
# From the text: The fall in TVCs or “kill” of the micro-activity following use of the first biocidal product alone or following a combination of use of the first biocidal product and second acidic sequestering product is similar but the time before significant re-inoculation is extended when the combination of the first and second compositions are used. In areas of high water hardness, the potential for re-inoculation is much higher than in areas of low water hardness and therefore the benefit of using an acidic sequestering product in combination with the biocidal product is much higher.
# The biocidial composition of the present invention results in a fall in TVC from a starting level of approximately 10^5 cfu/ml to 20-500 cfu/ml.
# [5] = system: Legionella; settings: cited from earlier work
# [6] = system: Hepatatis; settings: against Hepatatis; cited from earlier work
# [7] = system: Mycobacteria; settings: against Mycobacteria; cited from earlier work
# [8] = system: aerobic counts of shower water; assay: Hadfield office shower head, Petrifilm aerobic count after biocide treatment; settings: for Mb. Analyses Aerobic: 30 min contact
# [9] = 0.5% solution, 555 ppm, 8 days (192 hours) since biocide first added, (1) Resting (8 days), 16 °C
# [10] = 0.5% solution, 555 ppm, 8 days (192 hours) since biocide first added, (2) Shower running, 10 °C
# [11] = 0.5% solution, 555 ppm, 8 days (192 hours) since biocide first added, (3) Shower running, 15 °C
# [12] = 0.5% solution, 555 ppm, 8 days (192 hours) since biocide first added, (4) Shower running, 20 °C
# [13] = 0.5% solution, 555 ppm, 8 days (192 hours) since biocide first added, (5) Shower running, 25 °C
# [14] = 0.5% solution, 555 ppm, 8 days (192 hours) since biocide first added, (6) Shower running, 30 °C
# [15] = 0.5% solution, 555 ppm, 8 days (192 hours) since biocide first added, (7) Shower running, 35 °C
# [16] = 0.5% solution, 555 ppm, 8 days (192 hours) since biocide first added, (8) Shower running, 40 °C
# [17] = 0.5% solution, 555 ppm, 8 days (192 hours) since biocide first added, (9) Shower running - full heat, 41 °C
# [18] = 0.5% solution, 565 ppm, 24 hours after biocide addition, (1) Resting, 15 °C
# [19] = 0.5% solution, 565 ppm, 24 hours after biocide addition, (2) Shower running, 10 °C
# [20] = 0.5% solution, 565 ppm, 24 hours after biocide addition, (3) Shower running, 15 °C
# [21] = 0.5% solution, 565 ppm, 24 hours after biocide addition, (4) Shower running, 20 °C
# [22] = 0.5% solution, 565 ppm, 24 hours after biocide addition, (5) Shower running, 25 °C
# [23] = 0.5% solution, 565 ppm, 24 hours after biocide addition, (6) Shower running, 30 °C
# [24] = 0.5% solution, 565 ppm, 24 hours after biocide addition, (7) Shower running, 35 °C
# [25] = 0.5% solution, 565 ppm, 24 hours after biocide addition, (8) Shower running, 40 °C
# [26] = 0.5% solution, 565 ppm, 24 hours after biocide addition, (9) Shower running, 41 °C
# [27] = 0.5% solution, 565 ppm, 48 hours after biocide addition, (1) Resting, 16 °C
# [28] = 0.5% solution, 565 ppm, 48 hours after biocide addition, (2) Shower running, 10 °C
# [29] = 0.5% solution, 565 ppm, 48 hours after biocide addition, (3) Shower running, 15 °C
# [30] = 0.5% solution, 565 ppm, 48 hours after biocide addition, (4) Shower running, 20 °C
# [31] = 0.5% solution, 565 ppm, 48 hours after biocide addition, (5) Shower running, 25 °C
# [32] = 0.5% solution, 565 ppm, 48 hours after biocide addition, (6) Shower running, 30 °C
# [33] = 0.5% solution, 565 ppm, 48 hours after biocide addition, (7) Shower running, 35 °C
# [34] = 0.5% solution, 565 ppm, 48 hours after biocide addition, (8) Shower running, 40 °C
# [35] = 0.5% solution, 565 ppm, 48 hours after biocide addition, (9) Shower running, 41 °C
# [36] = 0.05% solution, 5 ppm, 24 hours after biocide addition, (1) Resting, 18 °C
# [37] = 0.05% solution, 5 ppm, 24 hours after biocide addition, (2) Shower running, 10 °C
# [38] = 0.05% solution, 5 ppm, 24 hours after biocide addition, (3) Shower running, 15 °C
# [39] = 0.05% solution, 5 ppm, 24 hours after biocide addition, (4) Shower running, 20 °C
# [40] = 0.05% solution, 5 ppm, 24 hours after biocide addition, (5) Shower running, 25 °C
# [41] = 0.05% solution, 5 ppm, 24 hours after biocide addition, (6) Shower running, 30 °C
# [42] = 0.05% solution, 5 ppm, 24 hours after biocide addition, (7) Shower running, 35 °C
# [43] = 0.05% solution, 5 ppm, 24 hours after biocide addition, (8) Shower running, 40 °C
# [44] = 0.05% solution, 5 ppm, 24 hours after biocide addition, (9) Shower running - full heat, 43 °C
# [45] = 0.05% solution, 5 ppm, 48 hours after biocide addition, (1) Resting, 17 °C
# [46] = 0.05% solution, 5 ppm, 48 hours after biocide addition, (2) Shower running, 10 °C
# [47] = 0.05% solution, 5 ppm, 48 hours after biocide addition, (3) Shower running, 15 °C
# [48] = 0.05% solution, 5 ppm, 48 hours after biocide addition, (4) Shower running, 20 °C
# [49] = 0.05% solution, 5 ppm, 48 hours after biocide addition, (5) Shower running, 25 °C
# [50] = 0.05% solution, 5 ppm, 48 hours after biocide addition, (6) Shower running, 30 °C
# [51] = 0.05% solution, 5 ppm, 48 hours after biocide addition, (7) Shower running, 35 °C
# [52] = 0.05% solution, 5 ppm, 48 hours after biocide addition, (8) Shower running, 40 °C
# [53] = 0.05% solution, 5 ppm, 48 hours after biocide addition, (9) Shower running - full heat, 42 °C
smiles,measurement,setting,value
"CCCCCCCCCCCCN(CCCN)CCCN [Lonzabac 12.100, N-(3-aminopropyl)-N-dodecylpropane-1,3-diamine]",Mb. Analyses Yeast/Mold,[1]; [9],No growth
same,Mb. Analyses Yeast/Mold,[1]; [10],No growth
same,Mb. Analyses Yeast/Mold,[1]; [11],No growth
same,Mb. Analyses Yeast/Mold,[1]; [12],No growth
same,Mb. Analyses Yeast/Mold,[1]; [13],No growth
same,Mb. Analyses Yeast/Mold,[1]; [14],1 yeast cols/ml
same,Mb. Analyses Yeast/Mold,[1]; [15],No growth
same,Mb. Analyses Yeast/Mold,[1]; [16],No growth
same,Mb. Analyses Yeast/Mold,[1]; [17],1 yeast cols/ml
same,Mb. Analyses Yeast/Mold,[1]; [18],No growth
same,Mb. Analyses Yeast/Mold,[1]; [19],No growth
same,Mb. Analyses Yeast/Mold,[1]; [20],No growth
same,Mb. Analyses Yeast/Mold,[1]; [21],No growth
same,Mb. Analyses Yeast/Mold,[1]; [22],No growth
same,Mb. Analyses Yeast/Mold,[1]; [23],No growth
same,Mb. Analyses Yeast/Mold,[1]; [24],No growth
same,Mb. Analyses Yeast/Mold,[1]; [25],No growth
same,Mb. Analyses Yeast/Mold,[1]; [26],No growth
same,Mb. Analyses Yeast/Mold,[1]; [27],No growth
same,Mb. Analyses Yeast/Mold,[1]; [28],No growth
same,Mb. Analyses Yeast/Mold,[1]; [29],No growth
same,Mb. Analyses Yeast/Mold,[1]; [30],No growth
same,Mb. Analyses Yeast/Mold,[1]; [31],No growth
same,Mb. Analyses Yeast/Mold,[1]; [32],No growth
same,Mb. Analyses Yeast/Mold,[1]; [33],No growth
same,Mb. Analyses Yeast/Mold,[1]; [34],No growth
same,Mb. Analyses Yeast/Mold,[1]; [35],No growth
same,Biocidal effect,"[2]; 100 ppm biocidal active, contact time 5 minutes",Biocidal
same,Biocidal effect,"[2]; 100 ppm biocidal active, contact time 10 minutes",Biocidal
same,Biocidal effect,"[2]; 100 ppm biocidal active, contact time 15 minutes",Biocidal
same,Biocidal effect,"[2]; 100 ppm biocidal active, contact time 30 minutes",Biocidal
same,Biocidal effect,"[2]; 200 ppm biocidal active, contact time 5 minutes",Biocidal
same,Biocidal effect,"[2]; 200 ppm biocidal active, contact time 10 minutes",Biocidal
same,Biocidal effect,"[2]; 200 ppm biocidal active, contact time 15 minutes",Biocidal
same,Biocidal effect,"[2]; 200 ppm biocidal active, contact time 30 minutes",Biocidal
same,Biocidal effect,"[2]; 300 ppm biocidal active, contact time 5 minutes",Biocidal
same,Biocidal effect,"[2]; 300 ppm biocidal active, contact time 10 minutes",Biocidal
same,Biocidal effect,"[2]; 300 ppm biocidal active, contact time 15 minutes",Biocidal
same,Biocidal effect,"[2]; 300 ppm biocidal active, contact time 30 minutes",Biocidal
same,Biocidal effect,"[2]; 500 ppm biocidal active, contact time 5 minutes",Biocidal
same,Biocidal effect,"[2]; 500 ppm biocidal active, contact time 10 minutes",Biocidal
same,Biocidal effect,"[2]; 500 ppm biocidal active, contact time 15 minutes",Biocidal
same,Biocidal effect,"[2]; 500 ppm biocidal active, contact time 30 minutes",Biocidal
same,"biocidal effect, summary of Table A","[2]; all concentrations (100-500 ppm), contact time as short as 5 minutes",biocidal to Legionella at all concentrations
same,concentration down to which effective,[3],≥ 0.05%
same,sterilisation of shower compared with 5 parts per million of BCDMH (L8 recommendations),[4],more effective sterilisation was achieved for a longer period
same,concentration down to which effective,[5],≥ 0.05%
same,concentration down to which effective,[6],≥ 0.05%
same,concentration down to which effective,[7],≥ 0.05%
same,Mb. Analyses Aerobic,[8]; [9],10^5 cols/ml
same,Mb. Analyses Aerobic,[8]; [10],1 cols/ml
same,Mb. Analyses Aerobic,[8]; [11],3 cols/ml
same,Mb. Analyses Aerobic,[8]; [12],No growth
same,Mb. Analyses Aerobic,[8]; [13],No growth
same,Mb. Analyses Aerobic,[8]; [14],9 cols/ml
same,Mb. Analyses Aerobic,[8]; [15],1 cols/ml
same,Mb. Analyses Aerobic,[8]; [16],No growth
same,Mb. Analyses Aerobic,[8]; [17],2 cols/ml
same,Mb. Analyses Aerobic,[8]; [18],60 cols/ml
same,Mb. Analyses Aerobic,[8]; [19],No growth
same,Mb. Analyses Aerobic,[8]; [20],No growth
same,Mb. Analyses Aerobic,[8]; [21],No growth
same,Mb. Analyses Aerobic,[8]; [22],No growth
same,Mb. Analyses Aerobic,[8]; [23],1 cols/ml
same,Mb. Analyses Aerobic,[8]; [24],No growth
same,Mb. Analyses Aerobic,[8]; [25],2 cols/ml
same,Mb. Analyses Aerobic,[8]; [26],No growth
same,Mb. Analyses Aerobic,[8]; [27],520 cols/ml
same,Mb. Analyses Aerobic,[8]; [28],8 cols/ml
same,Mb. Analyses Aerobic,[8]; [29],2 cols/ml
same,Mb. Analyses Aerobic,[8]; [30],No growth
same,Mb. Analyses Aerobic,[8]; [31],No growth
same,Mb. Analyses Aerobic,[8]; [32],No growth
same,Mb. Analyses Aerobic,[8]; [33],No growth
same,Mb. Analyses Aerobic,[8]; [34],1 cols/ml
same,Mb. Analyses Aerobic,[8]; [35],No growth
same,microbiological activity 8 days after treatment (Table 2),[8]; before inclusion of wetting agents and other functional components,re-established itself
"CC1(C)C(=O)N(Cl)C(=O)N1Br [Omnia-Stat SP, 1-Bromo-3-chloro-5,5-dimethylhydantoin, reference compound]",Mb. Analyses Yeast/Mold,[1]; [36],No growth
same,Mb. Analyses Yeast/Mold,[1]; [37],No growth
same,Mb. Analyses Yeast/Mold,[1]; [38],No growth
same,Mb. Analyses Yeast/Mold,[1]; [39],4 yeast cols/ml
same,Mb. Analyses Yeast/Mold,[1]; [40],7 yeast cols/ml
same,Mb. Analyses Yeast/Mold,[1]; [41],3 yeast cols/ml
same,Mb. Analyses Yeast/Mold,[1]; [42],5 yeast cols/ml
same,Mb. Analyses Yeast/Mold,[1]; [43],No growth
same,Mb. Analyses Yeast/Mold,[1]; [44],No growth
same,Mb. Analyses Yeast/Mold,[1]; [45],9 yeast cols/ml
same,Mb. Analyses Yeast/Mold,[1]; [46],8 yeast cols/ml
same,Mb. Analyses Yeast/Mold,[1]; [47],6 yeast cols/ml
same,Mb. Analyses Yeast/Mold,[1]; [48],19 yeast cols/ml
same,Mb. Analyses Yeast/Mold,[1]; [49],No growth
same,Mb. Analyses Yeast/Mold,[1]; [50],6 yeast cols/ml
same,Mb. Analyses Yeast/Mold,[1]; [51],No growth
same,Mb. Analyses Yeast/Mold,[1]; [52],10 yeast cols/ml
same,Mb. Analyses Yeast/Mold,[1]; [53],5 yeast cols/ml
same,Mb. Analyses Aerobic,[8]; [36],480 cols/ml
same,Mb. Analyses Aerobic,[8]; [37],No growth
same,Mb. Analyses Aerobic,[8]; [38],1 cols/ml
same,Mb. Analyses Aerobic,[8]; [39],5 cols/ml
same,Mb. Analyses Aerobic,[8]; [40],10 cols/ml
same,Mb. Analyses Aerobic,[8]; [41],5 cols/ml
same,Mb. Analyses Aerobic,[8]; [42],6 cols/ml
same,Mb. Analyses Aerobic,[8]; [43],No growth
same,Mb. Analyses Aerobic,[8]; [44],No growth
same,Mb. Analyses Aerobic,[8]; [45],2600 cols/ml
same,Mb. Analyses Aerobic,[8]; [46],3 cols/ml
same,Mb. Analyses Aerobic,[8]; [47],3 cols/ml
same,Mb. Analyses Aerobic,[8]; [48],5 cols/ml
same,Mb. Analyses Aerobic,[8]; [49],9 cols/ml
same,Mb. Analyses Aerobic,[8]; [50],2 cols/ml
same,Mb. Analyses Aerobic,[8]; [51],10 cols/ml
same,Mb. Analyses Aerobic,[8]; [52],6 cols/ml
same,Mb. Analyses Aerobic,[8]; [53],No growth
same,microbiological recovery after two days compared with the basic product (Table 3),"[8]; shower after 19 days resting, 5 ppm",considerably greater
